We go through 23 compounds from patent publication US9796700B2 (Celgene CAR LLC, priority 2013, dated 2017).

In one assay the target is Erk1 (Homo sapiens (Human), UniProt P27361). The experiment in a line: Protein Mass Modification Assay (intact protein MALDI). It counts as binding. A digest of the protocol:
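Percent covalent modification comes from the intact-protein MALDI centroid mass shift, treated versus control, divided by compound MW. Before analysis, human Erk1 was exposed to compound at 10-fold excess over protein for 60 min at room temperature.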

A further assay has as its target MEK1 activated ERK1 (Homo sapiens (Human), UniProt P27361). The experiment in a line: Omnia continuous-read kinase assay for potency against MEK1 activated ERK1. It counts as biochemical. The note with it: MEK1 activated ERK1, WT, ATP at KM. A digest of the protocol: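 Apparent IC50 came from initial reaction slopes (RFU vs time) plotted against log inhibitor with a variable-slope fit. Reactions were started with ERK1 (4 nM final) added to 50 μM ATP, roughly at its appKM, and 10 μM Sox-conjugated ST17 peptide in 20 mM Tris pH 7.5, 5 mM MgCl2. Fluorescence was monitored every 71 seconds.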

Assay [1] has as its system ERK1 phosphorylation of its substrate RSK in HT29 cells. Nature of the assay: pRSK MSD Assay in HT29 cells. It counts as cell-based. On the procedure:
The protocol below describes an assay to measure the kinase activity of ERK1 to phosphorylate its substrate, RSK, in the presence of a test compound. This experiment was conducted using a Mesoscale Discovery plate. The day before the assay, HT29 cells were split and plated at 50,000 cells/well in complete growth media. After allowing cells to adhere, the media was removed and replaced with media containing 0.1% FBS and incubated overnight. Blank MDS plates were coated with 25 μl/well RSK capture antibody and incubated at 4° C. overnight. The next day, the media was removed and replaced with 100 μl of media containing a test compound and incubated for 120 minutes at 37° C. The media was removed and replaced with 55 μl of well lysis buffer with protease and phosphatase inhibitors provided in the kit, followed by incubation at 4° C. for 30 minutes. 50 μl of lysate was transferred to a blocked MSD plate, followed by incubation at room temperature for 2 hours under constant shaking. The plate was washed 3 times with MSD wash buffer (cat#R617TX), and 25 μl/well phospho-RSK (pRSK) detection antibody was added with an appropriate Sulfo-tagged anti-species detection antibody diluted in 1% BSA in MSD wash buffer. This mixture was incubated for 1 hour at room temperature under constant shaking. The plate was washed 3 times, and 150 μl 1×MSD read buffer was added, followed by signal detection in an MSD plate reader.

Setting [2] is: Homo sapiens, HT-29, HT29 cells, read-out: ERK1 PRSK MSD HT29 EC50.
[3] abbreviates: HT29 cells, read-out: ERK1 PRSK MSD HT29 EC50.
[4] abbreviates: Homo sapiens, HT-29, read-out: ERK1 PRSK MSD HT29 EC50 (nM).

Where two headings read alike, the source gives them in different places.

Erk1, sequence (P27361 whole entry, looked up): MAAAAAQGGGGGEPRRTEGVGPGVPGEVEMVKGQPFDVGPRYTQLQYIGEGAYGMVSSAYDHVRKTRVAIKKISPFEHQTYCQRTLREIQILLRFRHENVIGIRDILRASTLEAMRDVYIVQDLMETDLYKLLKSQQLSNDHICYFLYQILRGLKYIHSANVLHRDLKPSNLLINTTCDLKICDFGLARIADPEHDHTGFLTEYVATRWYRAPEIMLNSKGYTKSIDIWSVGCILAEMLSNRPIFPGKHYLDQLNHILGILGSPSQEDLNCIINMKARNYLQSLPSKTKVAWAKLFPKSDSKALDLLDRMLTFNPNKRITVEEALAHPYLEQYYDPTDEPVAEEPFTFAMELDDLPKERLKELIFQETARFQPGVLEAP
MEK1 activated ERK1, sequence (P27361 whole entry): as the sequence (P27361 whole entry, looked up) above

By IC50 is commonly meant the concentration needed to halve the response being measured. The term EC50 denotes the concentration that produces a half-maximal response. In the case of `C=CC(=O)Nc1ccccc1Nc1nc(NC2CCOCC2)ncc1Cl` [Compound I-108, N-(2-((5-chloro-2-((tetrahydro-2H-pyran-4-yl)amino)pyrimidin-4-yl)amino)phenyl) acrylamide], the “ERK1 Mass Mod (%)” value at Erk1 is “E (provided a mass modification of ≧70%)”. The IC50 at MEK1 activated ERK1 is under 100 nM. Besides, in assay [1] (setting [2]), the EC50 was under 100 nM.
For `C=C(C)S(=O)(=O)Nc1cc(F)ccc1Nc1nc(Nc2cc(C(N)=O)ccc2C)ncc1C(F)(F)F` [Compound I-87, 3-((4-((4-Fluoro-2-(1-methylvinylsulfonamido)phenyl)amino)-5-(trifluoromethyl)pyrimidin-2-yl)amino)-4-methylbenzamide], at Erk1, the “ERK1 Mass Mod (%)” value is recorded as “G (proived a mass modification ≦30%)”. Also, in assay [1] (setting [2]), the EC50 is 101 to 500 nM.
Turning to `C=CC(=O)Nc1ccccc1Nc1nc(N[C@H]2CC[C@@H](O)CC2)ncc1C(F)(F)F` [Compound I-109, N-(2-((2-(cis-(4-hydroxycyclohexyl)amino)-5-(trifluoromethyl)pyrimidin-4-yl)amino)phenyl) acrylamide], the “ERK1 Mass Mod (%)” value at Erk1 is listed as “E (provided a mass modification of ≧70%)”. Moreover, in assay [1] (setting [3]), the EC50 was over 1000 nM.
In the case of `CCC(=O)Nc1ccccc1Nc1nc(Nc2ccc(N(CC)C(C)=O)cc2C#N)ncc1Cl` [Compound I-316, N-(2-((5-chloro-2-((2-cyano-4-(N-ethylacetamido)phenyl)amino)pyrimidin-4-yl)amino)phenyl)propionamide], the IC50 on MEK1 activated ERK1 is over 1000 nM. In addition, in assay [1] (setting [2]), the EC50 was over 1000 nM.
As to `C=CC(=O)Nc1ccccc1Nc1nc(N[C@H]2CC[C@H](O)CC2)ncc1Cl` [Compound I-101], the “ERK1 Mass Mod (%)” value on Erk1 is “E (provided a mass modification of ≧70%)”. For the same compound, in assay [1] (setting [2]), the EC50 lay in the range of 101 to 500 nM.
The corresponding values for `C=CC(=O)Nc1ccccc1Nc1nc(N[C@H]2CC[C@H](C(N)=O)CC2)ncc1C(F)(F)F` [Compound I-16, 4-((4-((2-acrylamidophenyl)amino)-5-(trifluoromethyl)pyrimidin-2-yl)amino) -trans-cyclohexanecarboxamide] are “E (provided a mass modification of ≧70%)” and 501 to 999 nM.
For `C=CC(=O)Nc1cc(C)ccc1Nc1nc(Nc2cc(OC)nc(OC)c2)ncc1C(F)(F)F` [Compound I-96], on Erk1, the “ERK1 Mass Mod (%)” value is on record as “E (key: E: provided a mass modification of ≧70%; F: provided a mass modification of 31-69%; G: proived a mass modification ≦30%)”. In addition, the EC50 in assay [1] (setting [4]) was under 100 nM.
Consider `C=CC(=O)Nc1cc(C)ccc1Nc1nc(Nc2cc(C(C)=O)ccc2C)ncc1C(F)(F)F` [Compound I-84, N-(2-((2-((5-Acetyl-2-methylphenyl)amino)-5-(trifluoromethyl)pyrimidin-4-yl)amino)-5-methylphenyl)acrylamide], for which the “ERK1 Mass Mod (%)” value at Erk1 is on record as “E (key: E: provided a mass modification of ≧70%; F: provided a mass modification of 31-69%; G: proived a mass modification ≦30%)”. In addition, the EC50 in assay [1] (setting [4]) lay within 101 to 500 nM.
As to `C=CC(=O)Nc1cc(C)ccc1Nc1nc(N[C@H]2CCN(S(=O)(=O)C=C)C2)ncc1C(F)(F)F` [Compound I-279, (S)—N-(5-Methyl-2-((5-(trifluoromethyl)-2-((1-(vinylsulfonyl)pyrrolidin-3-yl)amino)pyrimidin-4-yl)amino)phenyl)acrylamide], at Erk1, the “ERK1 Mass Mod (%)” value was “E (provided a mass modification of ≧70%)”. In addition, the EC50 in assay [1] (setting [2]) was over 1000 nM.
For `C=CC(=O)Nc1ccccc1Nc1nc(Nc2cncc(C(N)=O)c2)ncc1C(F)(F)F` [Compound I-63, 5-((4-((2-Acrylamidophenyl)amino)-5-(trifluoromethyl)pyrimidin-2-yl)amino)nicotinamide], in that order: “E (provided a mass modification of ≧70%)” and 101 to 500 nM.
As to `C=CC(=O)Nc1ccccc1Nc1nc(N[C@H]2CC[C@H](O)CC2)ncc1C(F)(F)F` [Compound I-1, Trans-N-(2-((2-((4-hydroxycyclohexyl)amino)-5-(trifluoromethyl)pyrimidin-4-yl)amino)phenyl)acrylamide], the “ERK1 Mass Mod (%)” value on Erk1 is “G (proived a mass modification ≦30%)”. In assay [1] (setting [3]), the EC50 lay within 101 to 500 nM.
Take `C=CC(=O)Nc1ccccc1Nc1nc(N[C@@H]2CCC[C@H](C(=O)O)C2)ncc1Cl` (racemic) [Compound I-133, Rac-3-((4-((2-acrylamidophenyl)amino)-5-chloropyrimidin-2-yl)amino)-cis-cyclohexanecarboxylic acid]: on Erk1, the “ERK1 Mass Mod (%)” value is recorded as “E (provided a mass modification of ≧70%)”. Also, the EC50 in assay [1] (setting [2]) is over 1000 nM.
Take `C=CC(=O)Nc1ccccc1Nc1nc(Nc2cc(OC)nc(N3CCN(C(C)=O)CC3)c2)ncc1C(F)(F)F` [Compound I-92]: on Erk1, the “ERK1 Mass Mod (%)” value is recorded as “E (provided a mass modification of ≧70%)”. Further, the EC50 in assay [1] (setting [2]) was under 100 nM.
On to `CC(C)S(=O)(=O)c1ccccc1Nc1nc(N[C@H]2CCCN(C(=O)CO)C2)ncc1C(F)(F)F` [Compound I-310, (S)-2-hydroxy-1-(3-((4-((2-(isopropylsulfonyl)phenyl)amino)-5-(trifluoromethyl)pyrimidin-2-yl)amino)piperidin-1-yl)ethanone], for which, on Erk1, the “ERK1 Mass Mod (%)” value is given as “G (proived a mass modification ≦30%)”. The IC50 on MEK1 activated ERK1 is under 100 nM.
As to `C=CC(=O)Nc1cc(C)ccc1Nc1nc(NC2CCC(=O)CC2)ncc1C(F)(F)F` [Compound I-38, N-(5-Methyl-2-((2-((4-oxocyclohexyl)amino)-5-(trifluoromethyl)pyrimidin-4-yl)amino)phenyl)acrylamide], the “ERK1 Mass Mod (%)” value at Erk1 is reported as “E (provided a mass modification of ≧70%)”. In addition, on MEK1 activated ERK1, the IC50 is under 100 nM.
Regarding `C=CC(=O)Nc1ccccc1Nc1nc(N[C@H]2CCCN(C(=O)C3CC3)C2)ncc1Cl` [Compound I-136, (S)—N-(2-((5-chloro-2-((1-(cyclopropanecarbonyl)piperidin-3-yl)amino)pyrimidin-4-yl)amino)phenyl)acrylamide], at Erk1, the “ERK1 Mass Mod (%)” value was “E (provided a mass modification of ≧70%)”. Moreover, the IC50 at MEK1 activated ERK1 was under 100 nM.
The corresponding values for `CC(C)=CC(=O)c1ccccc1Oc1nc(Nc2cc(C(N)=O)ccc2C)ncc1C(N)=O` [Compound I-271, 2-((5-carbamoyl-2-methylphenyl)amino)-4-(2-(3-methylbut-2-enoyl)phenoxy)pyrimidine-5-carboxamide] are “G (proived a mass modification ≦30%)” and over 1000 nM.
For `C=CC(=O)Nc1cc(C)ccc1Nc1nc(N[C@H]2CCCN(C(=O)CO)C2)ncc1C(F)(F)F` [Compound I-20, (S)—N-(2-((2-((1-(2-Hydroxyacetyl)piperidin-3-yl)amino)-5-(trifluoromethyl)pyrimidin-4-yl)amino)-5-methylphenyl)acrylamide], in that order: “E (provided a mass modification of ≧70%)” and under 100 nM.
The corresponding values for `C=CC(=O)Nc1ccccc1Nc1nc(Nc2cc(C(N)=O)ccc2C#N)ncc1Cl` [Compound I-192, 3-((4-((2-acrylamidophenyl)amino)-5-chloropyrimidin-2-yl)amino)-4-cyanobenzamide] are “E (provided a mass modification of ≧70%)” and under 100 nM.
Regarding `C=CS(=O)(=O)N[C@@H]1CCCC[C@H]1Nc1nc(N[C@H]2CCCN(C(=O)CO)C2)ncc1C(F)(F)F` [Compound I-36, N-((1R,2R)-2-((2-(((S)-1-(2-Hydroxyacetyl)piperidin-3-yl)amino)-5-(trifluoromethyl)pyrimidin-4-yl)amino)cyclohexyl)ethenesulfonamide], the “ERK1 Mass Mod (%)” value at Erk1 is listed as “E (provided a mass modification of ≧70%)”. Besides, the IC50 on MEK1 activated ERK1 was under 100 nM.
As to `CCC(=O)Nc1ccccc1Nc1nc(Nc2ccc3c(c2OC)CCCC(=O)N3CC)ncc1Cl` [Compound I-315, N-(2-((5-chloro-2-((1-ethyl-6-methoxy-2-oxo-2,3,4,5-tetrahydro-1H-benzo[b]azepin-7-yl)amino)pyrimidin-4-yl)amino)phenyl)propionamide], the “ERK1 Mass Mod (%)” value on Erk1 is “G (proived a mass modification ≦30%)”. The IC50 on MEK1 activated ERK1 is over 1000 nM.
The corresponding values for `C=CC(=O)N[C@H]1CCCC[C@H]1Nc1nc(Nc2cc(C(N)=O)ccc2C)ncc1Cl` [Compound I-200, 3-((4-(((1R,2S)-2-acrylamidocyclohexyl)amino)-5-chloropyrimidin-2-yl)amino)-4-methylbenzamide] are “G (proived a mass modification ≦30%)” and over 1000 nM.
`CCC(=O)Nc1ccccc1Nc1nc(Nc2ccc3c(c2)CCCC(=O)N3CCCN)ncc1Cl` [Compound I-314, N-(2-((2-((1-(3-aminopropyl)-2-oxo-2,3,4,5-tetrahydro-1H-benzo[b]azepin-7-yl)amino)-5-chloropyrimidin-4-yl)amino)phenyl)propionamide]: the “ERK1 Mass Mod (%)” value on Erk1 is “G (proived a mass modification ≦30%)”. In addition, the IC50 on MEK1 activated ERK1 was under 100 nM.
